Results published in paper PMC9143043, “Synthesis and Biological Evaluation of 5′-O-Fatty Acyl Ester Derivatives of 3′-Fluoro-2′,3′-dideoxythymidine as Potential Anti-HIV Microbicides” (Molecules, 2022).
“Also recorded” adds a separate entry of the source. Like-named read-outs stand apart in the source and are kept apart here.

Legend:
Assay type in all cases: cell-based
[1] = Cytotoxicity assay (MTS); details: human, HeLa cells (ATCC CCL-2.1)
[2] = system: HIV-1 strain IIIB (lymphocytotropic strain); assay: Single-round infection assay, cell-free X4 virus (lymphocytotropic strain); details: Human immunodeficiency virus 1, IIIB
Method: (§1) Anti-HIV activities of the compounds were evaluated according to the previously reported procedure. In summary, the HeLa (Human cervical carcinoma: ATCC CCL-2.1) cell line was used to measure the inactivation of both the cell-free virus preparations and virus-infected cell preparations. The cells were plated in culture plates 24 h prior to each experiment. Cell-free viral preparations of HIV-1 strains IIIB (lymphocytotropic strain) and BaL (monocytotropic strain) were used for the cell-free assay. For the cell-associated assay, the SulT1 cells were infected with IIIB virus 5 days prior to the experiment. Cell-free virus and virus-infected cells were mixed with different compounds and diluted to make different concentrations. The mixture was further diluted with the buffer and added to the HeLa cells.

[3] = system: HIV-1 strain BaL (monocytotropic strain); assay: Single-round infection assay, cell-free R5 virus (monocytotropic strain); details: Human immunodeficiency virus 1, BAL
Method: as §1

[4] = system: cell-associated HIV-1 IIIB (infected SulT1 cells); assay: Cell-associated transmission assay (IIIB); details: for EC50: Human immunodeficiency virus 1, IIIB
Method: as §1

[5] = system: HIV-1; assay: Anti-HIV activity overall (cell-free and cell-associated assays) and antiviral index
Excerpt: Table 2, Table 3 and Table 4 illustrate the anti-HIV-1 activities against the cell-free, cell-associated, and multidrug-resistant virus and sperm inhibiting properties of the selected compounds. In summary, the anti-HIV activity of 5′-substituted derivatives of FLT and AZT (5–18) was dependent on the nature of the 5′-substituent. […] None of the other esters were active against cell-associated virus. […] The difference in the activity of fatty acyl derivatives of FLT compared to each other and FLT may be due to their differences in the rate of uptake and intracellular hydrolysis.
By design, the ester moiety in the conjugates needs to be hydrolyzed to render parent nucleosides and fatty acids to produce anti-HIV activity. The anti-HIV activities of 5′-O-ether substituted FLT and AZT (3 and 4, Scheme 2) with a stable tetradecanyl (myristyl) group were compared with hydrolyzable 5′-O-ester substituted FLT and AZT (6 and 7).
as §1

[6] = system: HIV-1 94US3393IN (B-Wild Type); assay: PBMC multi-round infection assay, clinical isolate 94US3393IN; details: Human immunodeficiency virus 1
Method: (§2) Based on a preliminary screening, conjugates 5 and 8 were evaluated for their ability to inhibit a drug-resistant virus in a peripheral blood mononuclear cell (PBMC) assay. In this assay, FLT, 5, and 8 were tested against B- and C-wild type and A-17 and 4755–5 multidrug-resistant (MDR) clinical isolates of HIV-1, where compounds were incubated with PBMCs for 6 h and then washed off before the addition of the virus and further culture for 7 days.
(§3) For the assessment of compounds against the wild type (WT; R5; clones = 94US3393IN [B subtype] and 98USMSC5016 [C subtype]) and drug-resistant (clones = 4755−5 and A17) HIV-1 clinical isolates, PHA-P stimulated cells from at least two normal donors were pooled, diluted in fresh media, and plated in the interior wells of a 96-well round-bottom microplate. Pooling PBMCs from more than one donor was used to minimize the variability observed between the individual donors, which results from the quantitative and qualitative differences in HIV infection and overall response to the PHA and IL-2 of primary lymphocyte populations. Each plate contained virus/cell control wells (cells + virus), experimental wells (drug + cells + virus), and compound control wells (drug + media, no cells, necessary for MTS monitoring of cytotoxicity). Test drug dilutions were prepared in microtiter tubes, and each concentration was placed in appropriate wells. Following the addition of the drug dilutions to the PBMCs, a predetermined dilution of virus stock was then placed in each test well (final MOI ≅ 0.1). Because HIV-1 is not cytopathic to PBMCs, the same assay plate can be used for both the antiviral efficacy and cytotoxicity measurements. Compounds were incubated with virus and cells in a 96-well format for 6 h. The cells were then washed by removing 75% of the medium (150 μL) and replacing it with 150 μL of fresh (no drug) medium. The plates were then centrifuged (∼200 g) for 10 min, after which 150 μL of the medium was removed, and an additional 150 μL of fresh medium was added to each well and further incubated for 6 days or until peak reverse transcriptase (RT) activity was detected. A microtiter plate-based RT reaction was utilized. Incorporated radioactivity (counts per minute, CPM) was quantified using standard liquid scintillation techniques. Compound IC50 (50%, inhibition of virus replication) was calculated using statistical software and regression analysis. A cellular uptake study was conducted for fluorescence conjugates 23 and 24 using a previously published procedure with minor modifications. All of the experiments were conducted in triplicate.

[7] = system: HIV-1 98USMSC5016 (C-Wild Type); assay: PBMC multi-round infection assay, clinical isolate 98USMSC5016; details: Human immunodeficiency virus 1
Method: as §2, §3

[8] = system: HIV-1 A-17 MDR (B-NNRTI); assay: PBMC multi-round infection assay, resistant isolate A-17; details: Human immunodeficiency virus 1, PBMC
Method: as §2, §3

[9] = system: HIV-1 4755-5 MDR (B-MDR); assay: PBMC multi-round infection assay, resistant isolate 4755-5; details: Human immunodeficiency virus 1, PBMC
Method: as §2, §3

[10] = Table 2, MTS, 50% effective concentration
[11] = read-out: (X4) EC50, Table 2, single-round infection assay
[12] = read-out: (R5) EC50, Table 2, single-round infection assay
[13] = read-out: (CA) EC50, Table 2, cell-associated transmission assay (IIIB)
[14] = Table 3, conjugates vs physical mixtures
[15] = Table 2, single-round infection assay, read-out: (X4) EC50
[16] = Table 3, viral entry inhibition assay, read-out: (X4) EC50
[17] = Table 2, single-round infection assay, read-out: (R5) EC50
[18] = Table 3, viral entry inhibition assay, read-out: (R5) EC50
[19] = read-out: (CA) EC50, Table 3, cell-to-cell transmission assay (IIIB)
[20] = read-out: (X4) EC50, Table 3, viral entry inhibition assay
[21] = read-out: (R5) EC50, Table 3, viral entry inhibition assay

SMILES	EC50 [1, 10] [µM]	EC50 [2, 11] [µM]	EC50 [3, 12] [µM]	EC50 [4, 13] [µM]	further results
CCCCCSCCCCCCCC(=O)OC[C@H]1O[C@@H](n2cc(C)c(=O)[nH]c2=O)C[C@@H]1F [Compound 15]	> 64	11.4	4.4	> 64	
CCCCCCCCCCCCC(OC)C(=O)OC[C@H]1O[C@@H](n2cc(C)c(=O)[nH]c2=O)C[C@@H]1N=[N+]=[N-] (mixture of isomers) [Compound 14, (±)-3′-Azido-2′,3′-dideoxy-5′-O-(2-methoxyteradecanoyl)thymidine]	> 197	9.7	6.7	> 197	
Cc1cn([C@H]2C[C@H](N=[N+]=[N-])[C@@H](CO)O2)c(=O)[nH]c1=O [AZT, 3′-azido-2′,3′-dideoxythymidine, reference compound]	> 375			> 375	EC50 [1, 14]: > 374 µM; EC50 [2, 15]: 10.9 µM; EC50 [2, 16]: 10.9 µM; EC50 [3, 17]: 14.2 µM; EC50 [3, 18]: 14.2 µM; activity against cell-associated virus (in words) [4]: only inconsistently and moderately active; EC50 [4, 19]: > 374 µM
CCCCCCCCCCCCCC(=O)OC[C@H]1O[C@@H](n2cc(C)c(=O)[nH]c2=O)C[C@@H]1N=[N+]=[N-] [Compound 7]	> 629	3.1	5	> 629	EC50 [1, 14]: > 629 µM; EC50 [2, 20]: 3.1 µM; EC50 [3, 21]: 5 µM; EC50 [4, 19]: > 629 µM
Cc1cn([C@H]2C[C@H](N=[N+]=[N-])[C@@H](COC(=O)CCCCCCCCCCCBr)O2)c(=O)[nH]c1=O [Compound 12]	> 190	14.8	4.6	> 190	EC50 [1, 14]: > 190 µM; EC50 [2, 20]: 14.8 µM; EC50 [3, 21]: 4.6 µM; EC50 [4, 19]: > 190 µM
Cc1cn(C2CC(F)C(COC(=O)CCCCCCCCCCCN)O2)c(=O)[nH]c1=O (stereo not shown) [Compound 22, 3′-Fluoro-2′,3′-dideoxy-5′-O-(12-aminododecanoyl)thymidine]	> 226	3.4	1.6	> 227	anti-HIV activity (in words) [5]: comparable to other fatty acyl derivatives of FLT
CCSCCCCCCCCCCCC(=O)OC[C@H]1O[C@@H](n2cc(C)c(=O)[nH]c2=O)C[C@@H]1N=[N+]=[N-] [Compound 9]	> 101	7.7	5.2	90.7	
CCCCCCCCCCCCC(OC)C(=O)OC[C@H]1O[C@@H](n2cc(C)c(=O)[nH]c2=O)C[C@@H]1F (mixture of isomers) [Compound 13, (±)-3′-Fluoro-2′,3′-dideoxy-5′-O-(2-methoxyteradecanoyl)thymidine]	> 206	1	0.2	> 206	anti-HIV activity (in words) [5]: significant anti-HIV activity at noncytotoxic concentrations
Cc1cn([C@H]2C[C@H](F)[C@@H](COC(=O)CCCCCCCCCCCBr)O2)c(=O)[nH]c1=O [Compound 11]	> 198	1.8	< 0.2	> 198	
CCCCCSCCCCCCCC(=O)OC[C@H]1O[C@@H](n2cc(C)c(=O)[nH]c2=O)C[C@@H]1N=[N+]=[N-] [Compound 16]	> 202	9.3	12.9	> 202	
Cc1cn([C@H]2C[C@H](F)[C@@H](CO)O2)c(=O)[nH]c1=O [FLT, 3′-fluoro-2′,3′-dideoxythymidine]	> 410			> 410	EC50 [1, 14]: > 410 µM; EC50 [2, 15]: 0.8 µM; EC50 [2, 16]: 0.8 µM; EC50 [3, 17]: 0.4 µM; EC50 [3, 18]: 0.4 µM; activity against cell-associated virus (in words) [4]: only inconsistently and moderately active; also recorded: not active at all; EC50 [4, 19]: > 410 µM; IC50 [6]: 0.002 µM; IC90 [6]: 0.0204 µM; IC50 [7]: 0.002 µM; IC90 [7]: 0.0123 µM; IC50 [8]: 0.026 µM; IC90 [8]: 0.0872 µM; IC50 [9]: 0.107 µM; IC90 [9]: 1.06 µM
CCCCCOCCCCCCCC(=O)OC[C@H]1O[C@@H](n2cc(C)c(=O)[nH]c2=O)C[C@@H]1N=[N+]=[N-] [Compound 18]	> 209	4.8	6.1	> 209	
CCCCCCCCCCOCCC(=O)OC[C@H]1O[C@@H](n2cc(C)c(=O)[nH]c2=O)C[C@@H]1N=[N+]=[N-] [Compound 17]	> 209	6.7	2.1	> 209	
CCCCCCCCCCCCCCC(=O)OC[C@H]1O[C@@H](n2cc(C)c(=O)[nH]c2=O)C[C@@H]1N=[N+]=[N-] [Compound 10]	> 611	17.9	4.5	> 611	
CCCCCCCCCCCCCCOCC1OC(n2cc(C)c(=O)[nH]c2=O)CC1N=[N+]=[N-] (stereo not shown) [Compound 4, 3′-Azido-2′,3′-dideoxy-5′-O-(tetradecanyl)thymidine]	205	125	27.6	> 216	anti-HIV activity (in words) [5]: significantly less potent than the corresponding ester derivatives
CCCCCCCCCCCCCCOCC1OC(n2cc(C)c(=O)[nH]c2=O)CC1F (stereo not shown) [Compound 3, 3′-Fluoro-2′,3′-dideoxy-5′-O-(tetradecanyl)thymidine]	179	180	176	> 227	anti-HIV activity (in words) [5]: significantly less potent than the corresponding ester derivatives
